This is an account of results in patent US20220387608A1, “ADRENOMEDULLIN-ANALOGUES FOR LONG-TERM STABILIZATION AND THEIR USE” (Bayer Aktiengesellschaft, priority 2019, published 2022).

Positions of bridges follow the written chain, without caps; N, C: chain ends. Residues, ends and D or L forms follow the SMILES beside them.

The test deals with T1, AM1R (Homo sapiens, UniProt O60895+Q16602).
T1 construct: EYFP; ECFP; expressed in transfected cells; host or cells: HEK-293 (transient co-transfection)
Nature of the test: Activity determination in vitro: cAMP/CRE-luciferase reporter assay in HEK293 cells transiently co-transfected with CLR and RAMP2. Type of test: cell-based. As to conditions: for Emax: HEK293, normalized to [G14]ADM(14-52); for EC50: HEK293 with CLR/RAMP2, CRE-luciferase, 3 h stimulation. The method, then:
(1a) Activity Determination of Adrenomedullin Analogues in vitro
Cell Culture HEK-293 cells (human embryonic kidney cells) were cultured in Ham's F-12/DMEM (1/1; v/v) containing 15% FCS under humidified atmosphere at 37° C. and 5% CO2 in 75 cm^2 cell culture flasks.
Cells were cultured in 75 cm^2 flasks to 70-80% confluency. 45 μl Metafectene® Pro was diluted in 900 ρl Ham's F-12/DMEM (1/1; v/v) and incubated for 20 min at room temperature. 9 μg plasmid containing DNA of CLR fused to EYFP and 3 μg plasmid containing DNA of RAMP2 fused to ECFP were dissolved in 900 μl Ham's F-12/DMEM (1/1; v/v). The plasmid solution was mixed with the Metafectene® Pro solution and incubated for 25 min at room temperature. Medium was removed from the cells and replaced by 6 m1 Ham's F-12/DMEM (1/1; v/v) containing 15% FCS. After addition of transfection solution the cells were incubated for 3 h under humidified atmosphere at 37° C. and 5% CO2. For the second transfection 45 μl Metafectene® Pro was diluted in 900 μl Ham's F-12/DMEM (1/1; v/v) and incubated for 20 min at room temperature. 12 μg of pGL4.29[Luc2P/CRE/Hygro] plasmid containing DNA for the luciferase reporter gene luc2P (with CRE promotor region) were dissolved in 900 μl Ham's F-12/DMEM (1/1; v/v). The plasmid solution was mixed with the Metafectene® Pro solution and incubated for 25 min at room temperature. Medium was removed from the cells and replaced by 6 m1 Ham's F-12/DMEM (1/1; v/v) containing 15% FCS. After addition of transfection solution, the cells were incubated under humidified atmosphere at 37° C. and 5% CO2 over night.
For coating of 96-well-plates, 50 μl of a poly-D-lysine solution in DPBS (0.1 mg/ml) were pipetted in each well and incubated for 40 min. After removal of poly-D-lysine, each well was washed with 50 μl DPBS. Transiently transfected cells were detached from the cell culture flask by removal of the medium, 2-fold washing with 5 m1 DPBS and resuspending in 40 m1 Ham's F-12/DMEM (1/1; v/v) containing 15% FCS. 90,000 to 120,000 cells in 150 μl Ham's F-12/DMEM (1/1; v/v) containing 15% FCS were seeded per well and the plates were incubated under humidified atmosphere at 37° C. and 5% CO2 over night.
For each ligand, a serial dilution with eight different concentrations was prepared using Ham's F^12/DMEM (1/1; v/v). Before stimulation, the medium on the cells was replaced by 100 μl Ham's F^12/DMEM (1/1; v/v) and the plates were incubated for 1 h under humidified atmosphere at 37° C. and 5% CO2. For stimulation, the medium was removed and the cells were incubated for 3 h in 80 μl of ligand-solution under humidified atmosphere at 37° C. and 5% CO2. In addition 80 μl of a 5 μM forskolin solution in Ham's F-12/DMEM (1/1; v/v) was used as a positive control and 80 μl of Ham's F-12/DMEM (1/1; v/v) as a negative control. Each concentration and the controls were tested as triplicates.
After 3 h of stimulation, the solutions were removed and the cells were washed with 50 μl of Ham's F-12/DMEM (1/1; v/v) perwell. After 10 m incubation in 30 μl of Ham's F-12/DMEM (1/1; v/v) at room temperature, 30 μl of luciferase-solution (ONE-Glo™ Luciferase Assay System) was added and the luminescence was directly measured using an Infinite M200 (Tecan).
Data analysis of the luminescence measurement was carried out with GraphPad Prism 5. Therefore, the measured luminescence values of each plate were first corrected on the base of the respective average of forskolin stimulation. Afterwards they were normalized to [G14]ADM(14-52), which was used as standard peptide in every assay. After correction and normalization, data was analyzed using non-linear regression giving dose-response curves for each tested ligand.
(A reporter such as luciferase makes a cellular process visible.)

A word on the Emax: it is the greatest response seen or fitted, relative to the assay's reference. One may read the EC50 as the concentration giving half of the maximal effect. The low end stands for greater potency, the high end for weaker potency.

T1 sequence (Q16602 23-461): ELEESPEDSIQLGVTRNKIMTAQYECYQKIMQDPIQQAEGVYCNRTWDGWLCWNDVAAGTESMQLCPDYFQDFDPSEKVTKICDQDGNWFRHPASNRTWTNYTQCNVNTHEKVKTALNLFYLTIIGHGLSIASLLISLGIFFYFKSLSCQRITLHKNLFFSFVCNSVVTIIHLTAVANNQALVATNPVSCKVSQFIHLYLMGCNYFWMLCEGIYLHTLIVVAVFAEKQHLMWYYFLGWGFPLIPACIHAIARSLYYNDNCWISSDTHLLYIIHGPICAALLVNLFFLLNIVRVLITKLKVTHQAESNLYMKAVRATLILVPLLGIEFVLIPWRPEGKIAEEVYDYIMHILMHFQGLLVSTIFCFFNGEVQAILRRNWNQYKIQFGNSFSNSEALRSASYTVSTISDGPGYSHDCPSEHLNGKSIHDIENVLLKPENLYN
T1 sequence (O60895 43-175): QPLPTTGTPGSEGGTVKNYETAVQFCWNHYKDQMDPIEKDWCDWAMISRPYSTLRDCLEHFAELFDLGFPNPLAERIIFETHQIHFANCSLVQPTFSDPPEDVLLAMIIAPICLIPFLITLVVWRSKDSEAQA

Take `CC[C@H](C)[C@H](NC(=O)[C@H](CCC(N)=O)NC(=O)[C@H](Cc1c[nH]cn1)NC(=O)[C@H](C)NC(=O)[C@H](CC(C)C)NC(=O)[C@H](CCCCN)NC(=O)[C@H](CCC(N)=O)NC(=O)[C@@H](NC(=O)[C@@H](NC(=O)[C@@H]1CSSC[C@H](NC(=O)CNC(=O)CN)C(=O)N[C@@H](CCCNC(=N)N)C(=O)N[C@@H](Cc2ccccc2)C(=O)NCC(=O)N[C@@H]([C@@H](C)O)C(=O)N1)[C@@H](C)O)C(C)C)C(=O)N[C@@H](Cc1ccc(O)cc1)C(=O)N[C@@H](CCC(N)=O)C(=O)N[C@@H](Cc1ccccc1)C(=O)N[C@H](C(=O)N[C@@H](CC(=O)O)C(=O)N[C@@H](CCCCN)C(=O)N[C@@H](CC(=O)O)C(=O)N[C@@H](CCCCN)C(=O)N[C@@H](CC(=O)O)C(=O)N[C@@H](CC(N)=O)C(=O)N[C@H](C(=O)N[C@@H](C)C(=O)N1CCC[C@H]1C(=O)N[C@H]1CCCCNC(=O)C[C@@H](C(=O)N2CCC[C@H]2C(=O)N[C@@H](CCC(N)=O)C(=O)NCC(=O)N[C@@H](Cc2ccc(O)cc2)C(N)=O)NC(=O)[C@H]([C@@H](C)CC)NC(=O)[C@H](CCCCN)NC(=O)[C@H](CO)NC1=O)C(C)C)[C@@H](C)O` [Example 1, ((4R,7S,13S,16S,19R)-19-(2-(2-aminoacetamido)acetamido)-13-benzyl-16-(3-guanidinopropyl)-7-((R)-1-hydroxyethyl)-6,9,12,15,18-pentaoxo-1,2-dithia-5,8,11,14,17-pentaazacycloicosane-4-carbonyl)-L-threonyl-ADM(23-43)-((2S,5S,8S,11S,18S)-5-(4-aminobutyl)-18-(λ^2-azaneyl)-8-((S)-sec-butyl)-2-(hydroxymethyl)-3,6,9,13,19-pentaoxo-1,4,7,10,14-pentaazacyclononadecane-11-carbonyl)-L-prolyl-ADM(50-52)] (H-GGCRFGTCTVQKLAHQIYQFTDKDKDNVAPKSKIDPQGY-NH2; disulfide 3-8; lactam 31-35): the maximal response (Emax) stood at 102 ± 3% and the response was half-maximal at 3.9 nM (EC50).

For `CC[C@H](C)[C@H](NC(=O)[C@H](CCC(N)=O)NC(=O)[C@H](Cc1c[nH]cn1)NC(=O)[C@H](C)NC(=O)[C@H](CC(C)C)NC(=O)[C@H](CCCCN)NC(=O)[C@H](CCC(N)=O)NC(=O)[C@@H](NC(=O)[C@@H](NC(=O)[C@@H]1CSSC[C@H](NC(=O)CNC(=O)CN)C(=O)N[C@@H](CCCNC(=N)N)C(=O)N[C@@H](Cc2ccccc2)C(=O)NCC(=O)N[C@@H]([C@@H](C)O)C(=O)N1)[C@@H](C)O)C(C)C)C(=O)N[C@@H](Cc1ccc(O)cc1)C(=O)N[C@@H](CCC(N)=O)C(=O)N[C@@H](Cc1ccccc1)C(=O)N[C@H](C(=O)N[C@@H](CC(=O)O)C(=O)N[C@@H](CCCCN)C(=O)N[C@@H](CC(=O)O)C(=O)N[C@@H](CCCCN)C(=O)N[C@@H](CC(=O)O)C(=O)N[C@@H](CC(N)=O)C(=O)N[C@H](C(=O)N[C@@H](C)C(=O)N1CCC[C@H]1C(=O)N[C@H]1CC(=O)NCCCC[C@@H](C(=O)N2CCC[C@H]2C(=O)N[C@@H](CCC(N)=O)C(=O)NCC(=O)N[C@@H](Cc2ccc(O)cc2)C(N)=O)NC(=O)[C@H]([C@@H](C)CC)NC(=O)[C@H](CCCCN)NC(=O)[C@H](CO)NC1=O)C(C)C)[C@@H](C)O` [Example 2, ((4R,7S,13S,16S,19R)-19-(2-(2-aminoacetamido)acetamido)-13-benzyl-16-(3-guanidinopropyl)-7-((R)-1-hydroxyethyl)-6,9,12,15,18-pentaoxo-1,2-dithia-5,8,11,14,17-pentaazacycloicosane-4-carbonyl)-L-threonyl-ADM(23-43)-((3S,6S,9S,12S,20S)-6-(4-aminobutyl)-12-(λ^2-azaneyl)-3-((S)-sec-butyl)-9-(hydroxymethyl)-2,5,8,11,14-pentaoxo-1,4,7,10,15-pentaazacycloicosane-20-carbonyl)-L-prolyl-ADM(50-52)] (H-GGCRFGTCTVQKLAHQIYQFTDKDKDNVAPDSKIKPQGY-NH2; disulfide 3-8; lactam 31-35), the maximum response (Emax) worked out at 91 ± 1% and the EC50 worked out at 4.8 nM.

Consider `CC[C@H](C)[C@H](NC(=O)[C@H](CCC(N)=O)NC(=O)[C@H](Cc1c[nH]cn1)NC(=O)[C@H](C)NC(=O)[C@H](CC(C)C)NC(=O)[C@H](CCCCN)NC(=O)[C@H](CCC(N)=O)NC(=O)[C@@H](NC(=O)[C@@H](NC(=O)[C@@H]1CSSC[C@H](NC(=O)CNC(=O)CN)C(=O)N[C@@H](CCCNC(=N)N)C(=O)N[C@@H](Cc2ccccc2)C(=O)NCC(=O)N[C@@H]([C@@H](C)O)C(=O)N1)[C@@H](C)O)C(C)C)C(=O)N[C@@H](Cc1ccc(O)cc1)C(=O)N[C@@H](CCC(N)=O)C(=O)N[C@@H](Cc1ccccc1)C(=O)N[C@H](C(=O)N[C@@H](CC(=O)O)C(=O)N[C@@H](CCCCN)C(=O)N[C@@H](CC(=O)O)C(=O)N[C@@H](CCCCN)C(=O)N[C@@H](CC(=O)O)C(=O)N[C@@H](CC(N)=O)C(=O)N[C@H](C(=O)N[C@@H](C)C(=O)N1CCC[C@H]1C(=O)N[C@H]1CCCCNC(=O)CC[C@@H](C(=O)N2CCC[C@H]2C(=O)N[C@@H](CCC(N)=O)C(=O)NCC(=O)N[C@@H](Cc2ccc(O)cc2)C(N)=O)NC(=O)[C@H]([C@@H](C)CC)NC(=O)[C@H](CCCCN)NC(=O)[C@H](CO)NC1=O)C(C)C)[C@@H](C)O` [Example 3, ((4R,7S,13S,16S,19R)-19-(2-(2-aminoacetamido)acetamido)-13-benzyl-16-(3-guanidinopropyl)-7-((R)-1-hydroxyethyl)-6,9,12,15,18-pentaoxo-1,2-dithia-5,8,11,14,17-pentaazacycloicosane-4-carbonyl)-L-threonyl-ADM(23-43)-((2S,5S,8S,11S,20S)-5-(4-aminobutyl)-20-(λ^2-azaneyl)-8-((S)-sec-butyl)-2-(hydroxymethyl)-3,6,9,14,21-pentaoxo-1,4,7,10,15-pentaazacyclohenicosane-11-carbonyl)-L-prolyl-ADM(50-52)] (H-GGCRFGTCTVQKLAHQIYQFTDKDKDNVAPKSKIEPQGY-NH2; disulfide 3-8; lactam 31-35), for which the Emax came out at 93 ± 2% and the EC50 is 16 nM.

`CC[C@H](C)[C@H](NC(=O)[C@H](CCC(N)=O)NC(=O)[C@H](Cc1c[nH]cn1)NC(=O)[C@H](C)NC(=O)[C@H](CC(C)C)NC(=O)[C@H](CCCCN)NC(=O)[C@H](CCC(N)=O)NC(=O)[C@@H](NC(=O)[C@@H](NC(=O)[C@@H]1CSSC[C@H](NC(=O)CNC(=O)[C@@H](N)CCCCNC(=O)CCCCCCCCCCCCCCCCC(=O)O)C(=O)N[C@@H](CCCNC(=N)N)C(=O)N[C@@H](Cc2ccccc2)C(=O)NCC(=O)N[C@@H]([C@@H](C)O)C(=O)N1)[C@@H](C)O)C(C)C)C(=O)N[C@@H](Cc1ccc(O)cc1)C(=O)N[C@@H](CCC(N)=O)C(=O)N[C@@H](Cc1ccccc1)C(=O)N[C@H](C(=O)N[C@@H](CC(=O)O)C(=O)N[C@@H](CCCCN)C(=O)N[C@@H](CC(=O)O)C(=O)N[C@@H](CCCCN)C(=O)N[C@@H](CC(=O)O)C(=O)N[C@@H](CC(N)=O)C(=O)N[C@H](C(=O)N[C@@H](C)C(=O)N1CCC[C@H]1C(=O)N[C@@H](CCCNC(=N)N)C(=O)N[C@@H](CO)C(=O)N[C@@H](CCCCN)C(=O)N[C@H](C(=O)N[C@@H](CO)C(=O)N1CCC[C@H]1C(=O)N[C@@H](CCC(N)=O)C(=O)NCC(=O)N[C@@H](Cc1ccc(O)cc1)C(N)=O)[C@@H](C)CC)C(C)C)[C@@H](C)O` [Example 5, ((4R,7S,13S,16S,19R)-19-(2-((S)-2-amino-6-(17-carboxyoctadecanamido)hexanamido)acetamido)-13-benzyl-16-(3-guanidinopropyl)-7-((R)-1-hydroxyethyl)-6,9,12,15,18-pentaoxo-1,2-dithia-5,8,11,14,17-pentaazacycloicosane-4-carbonyl)-L-threonyl-ADM(23-52)] yielded an Emax of 105 ± 5% and a half-maximal effective concentration (EC50) of 17 nM.
